Molecular target: T1, WT BTK protein (Homo sapiens, UniProt Q06187)
T1 construct: measured for intracellular BTK protein levels by Western blotting; endogenous in cells; host or cells: TMD-8 or RAMOS cells
Test: BTK protein degradation assay (Western blotting), WT BTK
Type: cell-based
Conditions: concentration range accounting for 50% degradation of WT BTK protein, TMD-8 or RAMOS cells, 24 hours
In short: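 BTK levels were read by Western blotting (GAPDH and β-actin normalisers) in RIPA lysates of TMD-8 cells exposed to compounds for 24 h at 1×10^6 cells/mL. Results scored in ranges of the concentration producing 50% loss of WT BTK.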

T1 sequence (Q06187 whole entry): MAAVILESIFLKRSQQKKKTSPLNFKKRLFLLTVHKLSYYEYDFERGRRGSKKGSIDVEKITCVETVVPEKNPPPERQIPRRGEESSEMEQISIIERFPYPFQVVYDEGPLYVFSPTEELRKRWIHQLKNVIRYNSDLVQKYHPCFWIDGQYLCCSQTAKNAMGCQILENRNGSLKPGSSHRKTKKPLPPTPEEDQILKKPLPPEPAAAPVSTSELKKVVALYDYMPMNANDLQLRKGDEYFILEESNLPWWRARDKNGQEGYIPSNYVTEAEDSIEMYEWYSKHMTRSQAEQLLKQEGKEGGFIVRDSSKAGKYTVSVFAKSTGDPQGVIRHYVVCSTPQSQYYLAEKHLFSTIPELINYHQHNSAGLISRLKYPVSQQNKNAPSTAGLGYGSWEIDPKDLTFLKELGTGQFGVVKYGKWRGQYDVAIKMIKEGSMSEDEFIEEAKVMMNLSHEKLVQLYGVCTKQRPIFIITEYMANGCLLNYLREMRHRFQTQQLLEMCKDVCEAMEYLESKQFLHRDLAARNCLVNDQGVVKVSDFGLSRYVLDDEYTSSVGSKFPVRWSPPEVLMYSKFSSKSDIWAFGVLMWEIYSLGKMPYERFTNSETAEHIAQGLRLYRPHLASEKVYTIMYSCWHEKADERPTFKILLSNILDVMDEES

DC50 [nM] | Compound
0.1 to 10 | Cc1cccc(C)c1Nc1nn(C)c2nc(Nc3ccc4c(c3)CN(C(=O)CC3CCN(c5ccc6c(c5)C(=O)N(C5CCC(=O)NC5=O)C6=O)CC3)CC4)ncc12 (stereo not shown) [Compound 125, 5-(4-(2-(7-((3-((2,6-Dimethylphenyl)amino)-1-methyl-1H-pyrazolo[3,4-d]pyrimidin-6-yl)amino)-3,4-dihydroisoquinolin-2 (1H)-yl)-2-oxoethyl)piperidin-1-yl)-2-(2,6-dioxopiperidin-3-yl)isoindoline-1,3-dione]
0.1 to 10 | Cc1cccc(C)c1Nc1nn(C)c2nc(Nc3ccc4c(c3)CN(C(=O)CCC3CCN(c5ccc6c(c5)C(=O)N(C5CCC(=O)NC5=O)C6=O)CC3)CC4)ncc12 (stereo not shown) [Compound 126, 5-(4-(3-(7-((3-((2,6-Dimethylphenyl)amino)-1-methyl-1H-pyrazolo[3,4-d]pyrimidin-6-yl)amino)-3,4-dihydroisoquinolin-2 (1H)-yl)-3-oxopropyl)piperidin-1-yl)-2-(2,6-dioxopiperidin-3-yl)isoindoline-1,3-dione]
0.1 to 10 | Cc1cccc(C)c1Nc1nn(C)c2nc(Nc3ccc4c(c3)CN(C(=O)COC3CCN(c5ccc6c(c5)C(=O)N(C5CCC(=O)NC5=O)C6=O)CC3)CC4)ncc12 (stereo not shown) [Compound 127, 5-(4-(2-(7-((3-((2,6-Dimethylphenyl)amino)-1-methyl-1H-pyrazolo[3,4-d]pyrimidin-6-yl)amino)-3,4-dihydroisoquinolin-2 (1H)-yl)-2-oxoethoxy)piperidin-1-yl)-2-(2,6-dioxopiperidin-3-yl)isoindoline-1,3-dione]
0.1 to 10 | Cc1cccc(C)c1Nc1nn(C)c2nc(Nc3ccc4c(c3)CN(C(=O)[C@H]3CC[C@H](OC5CCN(c6ccc7c(c6)C(=O)N(C6CCC(=O)NC6=O)C7=O)CC5)CC3)CC4)ncc12 (stereo partly shown) [Compound 128, 5-(4-(((1r,4r)-4-(7-((3-((2,6-dimethylphenyl)amino)-1-methyl-H-pyrazolo[3,4-d]pyrimidin-6-yl)amino)-1,2,3,4-tetrahydroisoquinoline-2-carbonyl)cyclohexyl)oxy)piperidin-1-yl)-2-(2,6-dioxopiperidin-3-yl)isoindoline-1,3-dione]
0.1 to 10 | Cc1cccc(C)c1Nc1nn(C)c2nc(Nc3ccc4c(c3)CN(C(=O)CC3(O)CCN(c5ccc6c(c5)C(=O)N(C5CCC(=O)NC5=O)C6=O)CC3)CC4)ncc12 (stereo not shown) [Compound 129, 5-(4-(2-(7-((3-((2,6-dimethylphenyl)amino)-1-methyl-1H-pyrazolo[3,4-d]pyrimidin-6-yl)amino)-3,4-dihydroisoquinolin-2 (1H)-yl)-2-oxoethyl)-4-hydroxypiperidin-1-yl)-2-(2,6-dioxopiperidin-3-yl)isoindoline-1,3-dione]
0.1 to 10 | Cc1cccc(C)c1Nc1nn(C)c2nc(Nc3ccc4c(c3)CN(CC3(O)CCN(c5ccc6c(c5)C(=O)N(C5CCC(=O)NC5=O)C6=O)CC3)CC4)ncc12 (stereo not shown) [Compound 130, 5-(4-((7-((3-((2,6-dimethylphenyl)amino)-1-methyl-1H-pyrazolo[3,4-d]pyrimidin-6-yl)amino)-3,4-dihydroisoquinolin-2 (1H)-yl)methyl)-4-hydroxypiperidin-1-yl)-2-(2,6-dioxopiperidin-3-yl)isoindoline-1,3-dione]
0.1 to 10 | Cc1cccc(C)c1Nc1nn(C)c2nc(Nc3ccc4c(c3)CN(CCC3(O)CCN(c5ccc6c(c5)C(=O)N(C5CCC(=O)NC5=O)C6=O)CC3)CC4)ncc12 (stereo not shown) [Compound 131, 5-(4-(2-(7-((3-((2,6-Dimethylphenyl)amino)-1-methyl-1H-pyrazolo[3,4-d]pyrimidin-6-yl)amino)-3,4-dihydroisoquinolin-2 (1H)-yl)ethyl)-4-hydroxypiperidin-1-yl)-2-(2,6-dioxopiperidin-3-yl)isoindoline-1,3-dione]
0.1 to 10 | Cc1cccc(C)c1Nc1nn(C)c2nc(Nc3ccc4c(c3)CN(CC3CCN(c5ccc6c(n5)CN(C5CCC(=O)NC5=O)C6=O)CC3)CC4)ncc12 (stereo not shown) [Compound 132, 3-(2-(4-((7-((3-((2,6-dimethylphenyl)amino)-1-methyl-1H-pyrazolo[3,4-d]pyrimidin-6-yl)amino)-3,4-dihydroisoquinolin-2 (1H)-yl)methyl)piperidin-1-yl)-5-oxo-5,7-dihydro-6H-pyrrolo[3,4-b]pyridin-6-yl)piperidin-2,6-one]
0.1 to 10 | Cc1cccc(C)c1Nc1nn(C)c2nc(Nc3ccc4c(c3)CN(CC3(O)CCN(c5ccc6c(n5)CN(C5CCC(=O)NC5=O)C6=O)CC3)CC4)ncc12 (stereo not shown) [Compound 133, 3-(2-(4-((7-((3-((2,6-Dimethylphenyl)amino)-1-methyl-1H-pyrazolo[3,4-d]pyrimidin-6-yl)amino)-3,4-dihydroisoquinolin-2 (1H)-yl)methyl)-4-hydroxypiperidin-1-yl)-5-oxo-5,7-dihydro-6H-pyrrolo[3,4-b]pyridin-6-yl)piperidin-2,6-one]
0.1 to 10 | Cc1cccc(C)c1Nc1nn(C)c2nc(Nc3ccc(N4CCN(CC5CCN(c6ccc7c(c6)C(=O)N(C6CCC(=O)NC6=O)C7=O)CC5)CC4)nc3)ncc12 (stereo not shown) [Compound 134, 5-(4-((4-(5-((3-((2,6-Dimethylphenyl)amino)-1-methyl-1H-pyrazolo[3,4-d]pyrimidin-6-yl)amino)pyridin-2-yl)piperazin-1-yl)methyl)piperidin-1-yl)-2-(2,6-dioxopiperidin-3-yl)isoindoline-1,3-dione]
0.1 to 10 | Cc1cccc(C)c1Nc1nn(C)c2nc(Nc3ccc(N4CCC(CN5CCN(c6ccc7c(c6)C(=O)N(C6CCC(=O)NC6=O)C7=O)CC5)CC4)nc3)ncc12 (stereo not shown) [Compound 135, 5-(4-((1-(5-((3-((2,6-Dimethylphenyl)amino)-1-methyl-1H-pyrazolo[3,4-d]pyrimidin-6-yl)amino)pyridin-2-yl)piperidin-4-yl)methyl)piperazin-1-yl)-2-(2,6-dioxopiperidin-3-yl)isoindoline-1,3-dione]
0.1 to 10 | Cc1cccc(C)c1Nc1nn(C)c2nc(Nc3cccc(N4CCN(CC5CCN(c6ccc7c(c6)C(=O)N(C6CCC(=O)NC6=O)C7=O)CC5)CC4)c3)ncc12 (stereo not shown) [Compound 136, 5-(4-((4-(3-((3-((2,6-dimethylphenyl)amino)-1-methyl-1H-pyrazolo[3,4-d]pyrimidin-6-yl)amino)phenyl)piperazin-1-yl)methyl)piperidin-1-yl)-2-(2,6-dioxopiperidin-3-yl)isoindoline-1,3-dione]
0.1 to 10 | Cc1cccc(C)c1Nc1nn(C)c2nc(Nc3ccc4c(c3)CN(CC3CCN(c5ccc(C(=O)NC6CCC(=O)NC6=O)nc5)CC3)CC4)ncc12 (stereo not shown) [Compound 137, 5-(4-((7-((3-((2,6-Dimethylphenyl)amino)-1-methyl-1H-pyrazolo[3,4-d]pyrimidin-6-yl)amino)-3,4-dihydroisoquinolin-2 (1H)-yl)methyl)piperidin-1-yl)-N-(2,6-dioxopiperidin-3-yl)picolinamide]
0.1 to 10 | Cc1cccc(C)c1Nc1nn(C)c2nc(Nc3ccc4c(c3)CN(C3CCN(CC5CN(c6ccc7c(c6)C(=O)N(C6CCC(=O)NC6=O)C7=O)C5)CC3)CC4)ncc12 (stereo not shown) [Compound 138, 5-(3-((4-(7-((3-((2,6-Dimethylphenyl)amino)-1-methyl-1H-pyrazolo[3,4-d]pyrimidin-6-yl)amino)-3,4-dihydroisoquinolin-2 (1H)-yl)piperidin-1-yl)methyl)azetidin-1-yl)-2-(2,6-dioxopiperidin-3-yl)isoindoline-1,3-dione]
0.1 to 10 | Cc1cccc(C)c1Nc1nn(C)c2nc(Nc3ccc4c(c3)CN(C3CCN(CC5CCN(c6ccc7c(c6)C(=O)N(C6CCC(=O)NC6=O)C7=O)CC5)CC3)CC4)ncc12 (stereo not shown) [Compound 139, 5-(4-((4-(7-((3-((2,6-Dimethylphenyl)amino)-1-methyl-1H-pyrazolo[3,4-d]pyrimidin-6-yl)amino)-3,4-dihydroisoquinolin-2 (1H)-yl)piperidin-1-yl)methyl)piperidin-1-yl)-2-(2,6-dioxopiperidin-3-yl)isoindoline-1,3-dione]
0.1 to 10 | Cc1cccc(C)c1Nc1nn(C)c2nc(Nc3ccc4c(c3)CN(C3CCN(C[C@H]5CCCN(c6ccc7c(c6)C(=O)N(C6CCC(=O)NC6=O)C7=O)C5)CC3)CC4)ncc12 (stereo partly drawn) [Compound 140, 5-((R)-3-((4-(7-((3-((2,6-dimethylphenyl)amino)-1-methyl-1H-pyrazolo[3,4-d]pyrimidin-6-yl)amino)-3,4-dihydroisoquinolin-2 (1H)-yl)piperidin-1-yl)methyl)piperidin-1-yl)-2-(2,6-dioxopiperidin-3-yl)isoindoline-1,3-dione]
0.1 to 10 | Cc1cccc(C)c1Nc1nn(C)c2nc(Nc3ccc4c(c3)CN(C3CCN(C[C@@H]5CCCN(c6ccc7c(c6)C(=O)N(C6CCC(=O)NC6=O)C7=O)C5)CC3)CC4)ncc12 (stereo partly drawn) [Compound 141, 5-((S)-3-((4-(7-((3-((2,6-dimethylphenyl)amino)-1-methyl-1H-pyrazolo[3,4-d]pyrimidin-6-yl)amino)-3,4-dihydroisoquinolin-2 (1H)-yl)piperidin-1-yl)methyl)piperidin-1-yl)-2-(2,6-dioxopiperidin-3-yl)isoindoline-1,3-dione]
0.1 to 10 | Cc1cccc(C)c1Nc1nn(C)c2nc(Nc3ccc4c(c3)CN(C3CCN(C[C@H]5CCN(c6ccc7c(c6)C(=O)N(C6CCC(=O)NC6=O)C7=O)C5)CC3)CC4)ncc12 (stereo partly drawn) [Compound 142, 5-((R)-3-((4-(7-((3-((2,6-dimethylphenyl)amino)-1-methyl-1H-pyrazolo[3,4-d]pyrimidin-6-yl)amino)-3,4-dihydroisoquinolin-2 (1H)-yl)piperidin-1-yl)methyl)pyrrolidin-1-yl)-2-(2,6-dioxopiperidin-3-yl)isoindoline-1,3-dione]
0.1 to 10 | Cc1cccc(C)c1Nc1nn(C)c2nc(Nc3ccc4c(c3)CN(C3CCN(C[C@@H]5CCN(c6ccc7c(c6)C(=O)N(C6CCC(=O)NC6=O)C7=O)C5)CC3)CC4)ncc12 (stereo partly drawn) [Compound 143, 5-((S)-3-((4-(7-((3-((2,6-dimethylphenyl)amino)-1-methyl-1H-pyrazolo[3,4-d]pyrimidin-6-yl)amino)-3,4-dihydroisoquinolin-2 (1H)-yl)piperidin-1-yl)methyl)pyrrolidin-1-yl)-2-(2,6-dioxopiperidin-3-yl)isoindoline-1,3-dione]

From patent publication US12161722B2, “Bifunctional heterocyclic compound having BTK degradation function via ubiquitin proteasome pathway, and use thereof” (KOREA RESEARCH INSTITUTE OF CHEMICAL TECHNOLOGY, priority 2021, dated 2024)
